# In patent EP0187057A1, “2-Phenyl-isopropyl-allophanate, preparation and pharmaceutical application” (priority 1984, dated 1986):
# Values joined by “and” are separate entries in the source; they are usually repeats but may differ in a detail not shown here. Equal entries are not always repeated.
# What was measured:
# [1] = system: myoclonies palpébrales provoquées par l'infusion veineuse de pentétrazol; experiment: Intravenous pentetrazol infusion producing palpebral myoclonus (threshold seizures); assay type: in vivo, lapin; details: for Dose moyenne de pentétrazol: controls 23,0; for Quantité de pentétrazol nécessaire à l'apparition des myoclonies palpébrales / Temps d'infusion veineuse nécessaire à l'apparition des myoclonies palpébrales: individual animals; for Temps d'infusion veineuse nécessaire à l'apparition des myoclonies palpébrales: comma separates minutes and seconds
# From the text: (§1) Propriétés anticonvulsivantes : • On a effectué, pour déterminer ces propriétés anticonvulsivantes, des expérimentations sur le SCS 289 en procédant à des essais de protection : • - chez le lapin soumis à une transélectrification cranienne génératrice de crises épileptiformes de type "grand mal" ou recevant une infusion veineuse de pentétrazol provoquant l'apparition de myoclonies palpébrales; • - chez la souris recevant, par voie sous-cutanée des doses croissantes de pentétrazol entraînant convulsions et mort ou soumise à une transélectrification transcranienne à basse fréquence génératrice de crises psychomotrices.
# Les résultats quant à la protection contre les crises pentétrazoliques liminaires génératrices de myaclonies palpébrales figurent dans les tableaux ci-après.
# L'administration préalable de SCS 289 retarde l'apparition des myoclonies palpébrales provoquées par l'infusion veineuse de pentétrazol.
# Une expérimentation similaire pratiquée en essais croisés a donné les résultats suivants pour divers anticonvulsivants de référence : […]
# [2] = system: crises épileptiformes consécutives à l'électrochoc; experiment: Maximal electroshock producing epileptiform 'grand mal' seizures (1st and 2nd electroshock); assay type: in vivo, lapin
# From the text: as §1
# Ne considérant comme significative, que la protection complète, les traitements pratiqués une heure avant le second électrochoc ont conféré les protection suivantes (sur groupes de dix lapins) :
# Si, par ailleurs, on considère la protection contre les crises toniques (hyperextension des pattes postérieures), il apparaît également une synergie particulièrement aux doses associées de 200 mg/kg de produits.
# [3] = Narcotic effect; details: mouse, in vivo; souris; read-out: DE50 narcotique
# Experimental: En ce qui concerne la maniabilité, la comparaison des doses de SCS 289 exerçant, chez la souris, des effets létaux et anticonvulsivants permet de prévoir une marge thérapeutique assez confortable (dans le domaine du "petit mal") : • - DL50 = 2300 + 102 mg/kg; • - DE50 narcotique, comprise entre 1 et 2 g/kg; • - DE50 anticonvulsivante vis-à-vis du ^pentétrazol; • - DE50 anticonvulsivante vis-à-vis des crises psychomotrices.
# [4] = Weights test (muscular strength); assay type: in vivo, souris; details: mouse, in vivo, po; dose diminishing initial performance by 50 %; read-out: DA50 force musculaire
# From the text: (§2) On a donc étudié les effets dépresseurs que peuvent exercer des doses croissantes de SCS 289 sur : • - la motricité spontanée de la souris; • - sa curiosité, quantifiée par la méthode de la planche à trous; • - son agilité, évaluée par l'épreuve de la traction de Boissier et Simon; • - sa force musculaire, mesurée par l'épreuve des poids.
# (§3) Les essais ont été pratiqués sur des groupes de 10 souris dont les performances motrices ont été mesurées à deux reprises : avant et une heure après traitement par le SCS 289 administré, par voie digestive à des doses allant de 10 à 200 mg/kg, actives vis-à-vis des convulsions pentétrazoliques et des crises psychomotrices. A noter que l'épreuve de la planche à trous utilisée pour chiffrer la curiosité des animaux (décompte du nombre de visites des trous) n'est pratiquée qu'une seule fois, le comportement explorateur des animaux traités étant alors comparé à celui des témoins.
# (§4) Les résultats obtenus dans chaque groupe ont permis de calculer la DA50 capable de diminuer de 50 X les performances motrices initiales ou de diminuer de 50% la curiosité des souris traitées par rapport à celle des témoins.
# (§5) Les expérimentations comportementales précédemment décrites ont été appliquées à des animaux recevant SCS 35 et SCS 289 aux doses de 10 et 25 mg/kg.
# [5] = system: force musculaire de la souris; experiment: Weights test (muscular strength); assay type: in vivo
# From the text: as §2, §3, §4, §5
# [6] = system: curiosité de la souris; experiment: Hole-board test (curiosity, exploratory behaviour); assay type: in vivo
# From the text: as §2, §3, §4, §5
# [7] = Hole-board test (curiosity, exploratory behaviour); assay type: in vivo, souris; details: mouse, in vivo, po
# From the text: as §2, §3, §4, §5
# [8] = lapins ayant reçu 50 mg/kg de SCS 289
# [9] = lapins ayant reçu 100 mg/kg de SCS 289
smiles,measurement,setting,value
"CC(C)OC(=O)N(C(N)=O)c1ccccc1 [SCS 289, phényl-2 allophanate d'isopropyle]",Elévation du seuil myoclonique,[1]; 50 mg/kg,"61,7%"
same,Dose moyenne de pentétrazol,[1]; 50 mg/kg,"37,2 mg/kg"
same,Elévation du seuil myoclonique,[1]; 100 mg/kg,113%
same,Dose moyenne de pentétrazol,[1]; 100 mg/kg,"49,2 mg/kg"
same,Quantité de pentétrazol nécessaire à l'apparition des myoclonies palpébrales,[1]; [8],"40,78 mg/kg and 42,58 mg/kg and 51,43 mg/kg and 33,33 mg/kg and 43,68 mg/kg and 32,44 mg/kg and 22,22 mg/kg and 40 mg/kg and 45,15 mg/kg and 20 mg/kg"
same,Temps d'infusion veineuse nécessaire à l'apparition des myoclonies palpébrales,[1]; [8],"26 minutes et secondes and 28 minutes et secondes (2×) and 36 minutes et secondes and 21,15 minutes et secondes and 31,40 minutes et secondes and 22,20 minutes et secondes and 15 minutes et secondes and 28,40 minutes et secondes and 16 minutes et secondes"
same,Quantité de pentétrazol nécessaire à l'apparition des myoclonies palpébrales,[1]; [9],"51,85 mg/kg and 51,81 mg/kg and 46,28 mg/kg and 64 mg/kg and > 68,44 mg/kg and 45,15 mg/kg and 56,67 mg/kg and 33,84 mg/kg and 37,71 mg/kg and 36,41 mg/kg"
same,Temps d'infusion veineuse nécessaire à l'apparition des myoclonies palpébrales,[1]; [9],"35 minutes et secondes and 37 minutes et secondes and 28 minutes et secondes and 32 minutes et secondes and > 45 minutes et secondes and 28,40 minutes et secondes and 34 minutes et secondes and 33 minutes et secondes (2×) and 35,30 minutes et secondes"
same,activité vis-à-vis des myoclonies palpébrales du lapin par rapport au valproate de sodium,"[1]; relative activity, lapin",dix fois plus actif
same,activité vis-à-vis des myoclonies palpébrales du lapin par rapport à la phénacétamide,"[1]; relative activity, lapin",deux fois plus actif
same,% d'animaux protégés contre les seules crises toniques,"[2]; 100 mg/kg, hyperextension tonique des pattes postérieures",60%
same,% d'animaux protégés contre les seules crises toniques,[2]; 200 mg/kg,50%
same,protection contre la forme tonique des convulsions (animals out of ten),[2]; 200 mg/kg,cinq animaux sur dix
same,% d'animaux protégés complètement,"[2]; 200 mg/kg, one hour before second electroshock, groups of ten rabbits",20%
same,ED50,[3],1000 to 2000 mg/kg
same,ED50 at 1 h,[4],63 mg/kg
same,Propriétés déficitaires motrices sur la force musculaire (pourcentage de diminution des scores),"[5]; 10 mg/kg voie digestive, one hour after treatment","3,8%"
same,Propriétés déficitaires motrices sur la force musculaire (pourcentage de diminution des scores),[5]; 25 mg/kg,"8,3%"
same,Propriétés déficitaires motrices sur la force musculaire (pourcentage de diminution des scores),[5]; 50 mg/kg,33%
same,Propriétés déficitaires motrices sur la force musculaire (pourcentage de diminution des scores),[5]; 75 mg/kg,"31,9%"
same,Propriétés déficitaires motrices sur la force musculaire (pourcentage de diminution des scores),[5]; 100 mg/kg,"80,4%"
same,Propriétés déficitaires motrices sur la force musculaire (pourcentage de diminution des scores),[5]; 150 mg/kg,100%
same,Propriétés déficitaires motrices sur la force musculaire (pourcentage de diminution des scores),[5]; 200 mg/kg,100%
same,Nb de visites des trous Traités,"[6]; 10 mg/kg, par souris pendant cinq minutes, témoins 26,5",27
same,Nb de visites des trous Traités,"[6]; 25 mg/kg, témoins 26,4","27,4"
same,Nb de visites des trous Traités,"[6]; 50 mg/kg, témoins 24,2","23,6"
same,Nb de visites des trous Traités,"[6]; 75 mg/kg, témoins 27","21,4"
same,Nb de visites des trous Traités,"[6]; 100 mg/kg, témoins 25,4","8,6"
same,Nb de visites des trous Traités,"[6]; 150 mg/kg, témoins 24,2",0
same,Nb de visites des trous Traités,"[6]; 200 mg/kg, témoins 24,2",0
same,DA50 capable de diminuer de 50 % la curiosité de la souris,"[6]; méthode de Miller et Tainter, 60 min","82,5 ± 7,6 mg/kg and ~82 mg/kg"
same,ED50 at 1 h,"[7]; méthode de Miller et Tainter, read-out: DA50 capable de diminuer de 50 % la curiosité de la souris",82.5 mg/kg
same,selectivity ratio,"[7]; souris, read-out: DA50 curiosité par rapport aux doses anticonvulsivantes (pentétrazol / crises psychomotrices)",15 to 18
